# Assay results as given in ChEMBL document CHEMBL4602623, “Inhibition of hedgehog signaling by stereochemically defined des-triazole itraconazole analogues” (Bioorg Med Chem Lett, 2020).
# Assay: Inhibition of Hedgehog signaling pathway in mouse ASZ001 cells assessed as decrease in Gli1 mRNA expression after 48 hrs by qRT-PCR analysis
# Format: cell-based
# Settings: ASZ001, 48 h
row,Compound,IC50
1,CC[C@@H](C)n1ncn(-c2ccc(N3CCN(c4ccc(OC[C@@H]5CO[C@@](CCl)(c6ccc(Cl)cc6Cl)O5)cc4)CC3)cc2)c1=O,25 nM
2,CC[C@@H](C)n1ncn(-c2ccc(N3CCN(c4ccc(OC[C@@H]5CO[C@@H](c6ccc(Cl)cc6Cl)O5)cc4)CC3)cc2)c1=O,310 nM
3,CC[C@@H](C)n1ncn(-c2ccc(N3CCN(c4ccc(OC[C@@H]5CO[C@H](c6ccc(Cl)cc6Cl)O5)cc4)CC3)cc2)c1=O,300 nM
4,CC[C@@H](C)n1ncn(-c2ccc(N3CCN(c4ccc(OC[C@@H]5CO[C@](CCl)(c6ccc(Cl)cc6Cl)O5)cc4)CC3)cc2)c1=O,20 nM
5,CC[C@@H](C)n1ncn(-c2ccc(N3CCN(c4ccc(OC[C@@H]5CO[C@@](c6ccc(Cl)cc6Cl)(C(F)(F)F)O5)cc4)CC3)cc2)c1=O,69 nM
6,CC[C@@H](C)n1ncn(-c2ccc(N3CCN(c4ccc(OC[C@@H]5CO[C@](CN6C(=O)c7ccccc7C6=O)(c6ccc(Cl)cc6Cl)O5)cc4)CC3)cc2)c1=O,1070 nM
7,CC[C@@H](C)n1ncn(-c2ccc(N3CCN(c4ccc(OC[C@@H]5CO[C@@](CN)(c6ccc(Cl)cc6Cl)O5)cc4)CC3)cc2)c1=O,550 nM
8,CC[C@@H](C)n1ncn(-c2ccc(N3CCN(c4ccc(OC[C@@H]5CO[C@@](Cn6ccnc6)(c6ccc(Cl)cc6Cl)O5)cc4)CC3)cc2)c1=O,110 nM
9,CC[C@@H](C)n1ncn(-c2ccc(N3CCN(c4ccc(OC[C@@H]5CO[C@](Cn6ccnc6)(c6ccc(Cl)cc6Cl)O5)cc4)CC3)cc2)c1=O,110 nM
10,CC[C@@H](C)n1ncn(-c2ccc(N3CCN(c4ccc(OC[C@@H]5CO[C@](c6ccc(Cl)cc6Cl)(C(F)(F)F)O5)cc4)CC3)cc2)c1=O,67 nM
11,CC[C@@H](C)n1ncn(-c2ccc(N3CCN(c4ccc(OC[C@@H]5CO[C@@](C(N)=O)(c6ccc(Cl)cc6Cl)O5)cc4)CC3)cc2)c1=O,940 nM
12,CC[C@@H](C)n1ncn(-c2ccc(N3CCN(c4ccc(OC[C@@H]5CO[C@@](CN6C(=O)c7ccccc7C6=O)(c6ccc(Cl)cc6Cl)O5)cc4)CC3)cc2)c1=O,820 nM
13,CCC(C)n1ncn(-c2ccc(N3CCN(c4ccc(OCC5COC(Cn6cncn6)(c6ccc(Cl)cc6Cl)O5)cc4)CC3)cc2)c1=O (stereo not drawn) [ITRACONAZOLE],140 nM
